Laboratory results published in patent publication EP4745137A1 (Gluetacs Therapeutics (Shanghai) Co., Ltd., priority 2023, dated 2025).

Key:
[1] = molecular target: T1, GSPT1 (Homo sapiens, UniProt P15170+Q96SW2); experiment: Western-blot assay of substrate protein degradation in hPBMCs, GSPT1; format: cell-based; conditions: 24 hours of compound treatment
T1 construct: endogenous in cells; host or cells: hPBMCs (Milecell Biotechnologies)

[2] = molecular target: T2, IKZF3 (Homo sapiens, UniProt Q96SW2+Q9UKT9); experiment: Western-blot assay of substrate protein degradation in hPBMCs, IKZF3; format: cell-based; conditions: 24 hours of compound treatment
T2 construct: endogenous in cells; host or cells: hPBMCs (Milecell Biotechnologies)

[3] = tested on: Human breast cancer cells (MDA-MB-231); experiment: Tumor cell proliferation inhibition (CellTiter-Meiluncell Luminescent Cell Viability Assay), MDA-MB-231; conditions: for IC50: MDA-MB-231, 96 h, read-out: inhibitory activity (IC50, nM) against tumor cells proliferation, MDA-MB-231; for inhibition at 0.01 µM: MDA-MB-231, read-out: Inhibition rate (%) at 10 nM; for inhibition at 0.5 µM: MDA-MB-231, read-out: Inhibition rate (%) at 500 nM
[4] = molecular target: T3, WEE1 (Homo sapiens, UniProt P30291+Q96SW2); experiment: Western-blot assay of substrate protein degradation in hPBMCs, WEE1; format: cell-based; conditions: 24 hours of compound treatment
T3 construct: endogenous in cells; host or cells: hPBMCs (Milecell Biotechnologies)

[5] = molecular target: T4, human Cereblon WT GST-tagged protein (Homo sapiens, UniProt Q96SW2); experiment: CRBN-binding affinity by HTRF (CEREBLON BINDING kit); conditions: HTRF inhibitory activity, CEREBLON BINDING kit; read-out: HTRF IC50
T4 construct: purchased CISBIO 64BDCRBNPEH

[6] = molecular target: T5, IKZF1 (Homo sapiens, UniProt Q13422+Q96SW2); experiment: Western-blot assay of substrate protein degradation in hPBMCs, IKZF1; format: cell-based; conditions: 24 hours of compound treatment
T5 construct: endogenous in cells; host or cells: hPBMCs (Milecell Biotechnologies)

[7] = tested on: NCI-H1975; experiment: Tumor cell proliferation inhibition (CellTiter-Meiluncell Luminescent Cell Viability Assay), NCI-H1975; conditions: Homo sapiens, NCI-H1975, 96 h, read-out: inhibitory activity (IC50, nM) against tumor cells proliferation, H1975
[8] = tested on: Human acute T lymphocytic leukemia cells (Molt-4); experiment: Tumor cell proliferation inhibition (CellTiter-Meiluncell Luminescent Cell Viability Assay), Molt-4; conditions: MOLT-4, 96 h, read-out: inhibitory activity (IC50, nM) against tumor cells proliferation, Molt 4
[9] = molecular target: T6, IKZF2 (Homo sapiens, UniProt Q96SW2+Q9UKS7); experiment: Western-blot assay of substrate protein degradation in hPBMCs, IKZF2; format: cell-based; conditions: 24 hours of compound treatment
T6 construct: endogenous in cells; host or cells: hPBMCs (Milecell Biotechnologies)

[10] = molecular target: T7, CK1α (Homo sapiens, UniProt P48729+Q96SW2); experiment: Western-blot assay of substrate protein degradation in hPBMCs, CK1α; format: cell-based; conditions: 24 hours of compound treatment
T7 construct: endogenous in cells; host or cells: hPBMCs (Milecell Biotechnologies)

[11] = compounds tested at 50 nM and 500 nM (concentration of the table not stated)
[12] = 50 nM and 500 nM tested (concentration behind the class not stated)

T3 sequence (P30291 whole entry): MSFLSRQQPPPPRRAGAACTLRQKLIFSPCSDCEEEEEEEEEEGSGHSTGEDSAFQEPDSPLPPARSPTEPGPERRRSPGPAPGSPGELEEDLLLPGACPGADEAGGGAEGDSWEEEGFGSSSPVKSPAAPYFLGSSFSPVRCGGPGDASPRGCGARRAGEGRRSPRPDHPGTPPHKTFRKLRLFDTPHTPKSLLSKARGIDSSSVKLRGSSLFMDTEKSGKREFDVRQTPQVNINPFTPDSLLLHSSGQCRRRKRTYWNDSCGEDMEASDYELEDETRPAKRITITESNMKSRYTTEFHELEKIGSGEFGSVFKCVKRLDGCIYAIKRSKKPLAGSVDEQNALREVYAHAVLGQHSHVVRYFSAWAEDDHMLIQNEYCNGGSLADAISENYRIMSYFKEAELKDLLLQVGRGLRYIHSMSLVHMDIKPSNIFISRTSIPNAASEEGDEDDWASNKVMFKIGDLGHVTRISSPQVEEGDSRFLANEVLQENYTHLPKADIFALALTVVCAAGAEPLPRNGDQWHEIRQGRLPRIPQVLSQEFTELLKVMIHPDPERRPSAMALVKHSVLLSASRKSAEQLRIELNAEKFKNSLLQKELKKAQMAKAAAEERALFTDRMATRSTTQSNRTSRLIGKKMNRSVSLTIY
T3 sequence (Q96SW2 whole entry): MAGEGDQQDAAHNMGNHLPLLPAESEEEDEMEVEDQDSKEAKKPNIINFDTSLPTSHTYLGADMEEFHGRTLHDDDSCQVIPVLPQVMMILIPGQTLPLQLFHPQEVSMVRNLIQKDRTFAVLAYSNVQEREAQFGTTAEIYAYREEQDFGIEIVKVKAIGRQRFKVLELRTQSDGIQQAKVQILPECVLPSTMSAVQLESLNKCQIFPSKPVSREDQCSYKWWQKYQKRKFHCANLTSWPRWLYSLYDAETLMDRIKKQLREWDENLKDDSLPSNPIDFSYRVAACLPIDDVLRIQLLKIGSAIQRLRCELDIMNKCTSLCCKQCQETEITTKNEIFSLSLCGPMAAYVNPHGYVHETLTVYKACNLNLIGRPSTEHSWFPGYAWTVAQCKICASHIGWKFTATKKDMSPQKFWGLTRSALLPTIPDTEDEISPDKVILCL
T3 sequence (Q16531 whole entry partner): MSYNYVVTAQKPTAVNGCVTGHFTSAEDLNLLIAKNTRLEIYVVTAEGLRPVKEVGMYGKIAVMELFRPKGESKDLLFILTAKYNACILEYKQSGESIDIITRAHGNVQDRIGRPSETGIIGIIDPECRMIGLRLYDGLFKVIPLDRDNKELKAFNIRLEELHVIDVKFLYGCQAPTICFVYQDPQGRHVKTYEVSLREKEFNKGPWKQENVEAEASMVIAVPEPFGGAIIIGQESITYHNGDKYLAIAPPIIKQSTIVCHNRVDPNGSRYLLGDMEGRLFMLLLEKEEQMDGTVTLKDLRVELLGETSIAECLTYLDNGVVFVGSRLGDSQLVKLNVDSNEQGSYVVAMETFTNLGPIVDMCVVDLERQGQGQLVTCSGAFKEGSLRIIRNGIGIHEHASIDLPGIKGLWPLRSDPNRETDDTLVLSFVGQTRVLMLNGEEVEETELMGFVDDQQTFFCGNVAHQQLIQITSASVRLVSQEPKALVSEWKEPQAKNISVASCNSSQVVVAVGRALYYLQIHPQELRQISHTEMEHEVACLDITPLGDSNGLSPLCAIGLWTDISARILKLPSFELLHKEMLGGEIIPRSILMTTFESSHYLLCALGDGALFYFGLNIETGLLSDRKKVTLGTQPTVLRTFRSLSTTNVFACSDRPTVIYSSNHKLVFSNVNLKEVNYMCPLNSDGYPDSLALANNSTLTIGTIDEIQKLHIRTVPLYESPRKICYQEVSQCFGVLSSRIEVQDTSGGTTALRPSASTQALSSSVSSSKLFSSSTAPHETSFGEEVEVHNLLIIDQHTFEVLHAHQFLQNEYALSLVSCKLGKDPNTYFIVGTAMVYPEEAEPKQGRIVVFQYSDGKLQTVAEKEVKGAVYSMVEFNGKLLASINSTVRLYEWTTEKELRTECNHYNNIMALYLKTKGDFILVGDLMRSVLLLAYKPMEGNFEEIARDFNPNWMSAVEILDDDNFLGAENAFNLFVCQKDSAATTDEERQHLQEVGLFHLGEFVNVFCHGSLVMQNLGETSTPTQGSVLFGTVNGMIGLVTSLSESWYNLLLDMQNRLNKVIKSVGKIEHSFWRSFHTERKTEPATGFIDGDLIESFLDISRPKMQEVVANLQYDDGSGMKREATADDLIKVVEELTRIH
T5 sequence (Q13422 whole entry): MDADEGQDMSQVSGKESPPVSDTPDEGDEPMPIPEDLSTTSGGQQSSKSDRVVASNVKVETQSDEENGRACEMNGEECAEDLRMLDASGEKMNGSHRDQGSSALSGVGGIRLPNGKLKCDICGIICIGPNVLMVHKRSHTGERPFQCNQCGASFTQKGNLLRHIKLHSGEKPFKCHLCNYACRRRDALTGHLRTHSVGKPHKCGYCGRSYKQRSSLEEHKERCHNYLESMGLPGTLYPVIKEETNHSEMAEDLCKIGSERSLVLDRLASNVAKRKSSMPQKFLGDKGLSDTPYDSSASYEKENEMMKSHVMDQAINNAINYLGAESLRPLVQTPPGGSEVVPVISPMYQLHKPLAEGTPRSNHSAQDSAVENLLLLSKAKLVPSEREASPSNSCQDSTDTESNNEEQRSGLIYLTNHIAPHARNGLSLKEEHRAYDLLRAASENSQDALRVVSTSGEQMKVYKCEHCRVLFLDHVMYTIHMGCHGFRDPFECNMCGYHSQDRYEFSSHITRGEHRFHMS
T5 sequence (Q96SW2 whole entry): as the sequence (Q96SW2 whole entry) above
T5 sequence (Q16531 whole entry partner): as the sequence (Q16531 whole entry partner) above
T2 sequence (Q9UKT9 whole entry): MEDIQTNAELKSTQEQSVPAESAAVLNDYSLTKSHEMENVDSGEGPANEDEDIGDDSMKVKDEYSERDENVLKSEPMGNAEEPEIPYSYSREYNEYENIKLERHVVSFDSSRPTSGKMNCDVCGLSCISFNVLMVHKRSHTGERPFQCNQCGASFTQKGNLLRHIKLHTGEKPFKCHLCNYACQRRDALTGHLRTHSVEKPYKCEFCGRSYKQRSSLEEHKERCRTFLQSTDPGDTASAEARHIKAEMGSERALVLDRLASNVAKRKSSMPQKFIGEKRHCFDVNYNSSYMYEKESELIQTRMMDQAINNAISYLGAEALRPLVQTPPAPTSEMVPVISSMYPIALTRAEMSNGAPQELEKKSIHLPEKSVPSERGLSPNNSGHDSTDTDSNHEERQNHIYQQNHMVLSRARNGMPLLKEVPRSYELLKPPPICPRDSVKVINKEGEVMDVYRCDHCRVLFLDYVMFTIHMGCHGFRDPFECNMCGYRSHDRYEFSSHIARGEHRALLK
T2 sequence (Q96SW2 whole entry): as the sequence (Q96SW2 whole entry) above
T2 sequence (Q16531 whole entry partner): as the sequence (Q16531 whole entry partner) above
T7 sequence (P48729 whole entry): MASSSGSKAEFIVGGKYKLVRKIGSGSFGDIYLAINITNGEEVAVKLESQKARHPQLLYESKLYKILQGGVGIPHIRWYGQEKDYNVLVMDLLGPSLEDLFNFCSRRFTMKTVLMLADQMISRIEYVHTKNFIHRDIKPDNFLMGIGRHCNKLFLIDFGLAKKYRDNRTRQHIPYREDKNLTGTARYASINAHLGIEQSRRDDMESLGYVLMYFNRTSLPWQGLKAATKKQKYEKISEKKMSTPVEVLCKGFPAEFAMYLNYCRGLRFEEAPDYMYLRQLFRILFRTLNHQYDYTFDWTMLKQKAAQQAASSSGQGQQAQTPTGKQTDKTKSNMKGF
T7 sequence (Q96SW2 whole entry): as the sequence (Q96SW2 whole entry) above
T7 sequence (Q16531 whole entry partner): as the sequence (Q16531 whole entry partner) above
T1 sequence (P15170 whole entry): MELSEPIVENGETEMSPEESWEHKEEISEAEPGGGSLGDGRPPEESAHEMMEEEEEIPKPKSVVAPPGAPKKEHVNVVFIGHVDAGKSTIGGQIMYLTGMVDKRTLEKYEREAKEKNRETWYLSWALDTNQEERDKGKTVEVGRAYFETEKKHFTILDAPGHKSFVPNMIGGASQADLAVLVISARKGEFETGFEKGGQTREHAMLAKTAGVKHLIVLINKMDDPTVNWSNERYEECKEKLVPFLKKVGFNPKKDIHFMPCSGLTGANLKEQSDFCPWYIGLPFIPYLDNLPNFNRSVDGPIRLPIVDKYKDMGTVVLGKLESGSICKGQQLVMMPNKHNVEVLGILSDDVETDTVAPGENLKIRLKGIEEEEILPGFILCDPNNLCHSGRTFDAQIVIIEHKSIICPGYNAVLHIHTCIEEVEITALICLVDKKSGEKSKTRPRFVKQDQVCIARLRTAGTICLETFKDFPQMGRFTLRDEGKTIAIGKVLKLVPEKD
T1 sequence (Q96SW2 whole entry): as the sequence (Q96SW2 whole entry) above
T1 sequence (Q16531 whole entry partner): as the sequence (Q16531 whole entry partner) above
T4 sequence (Q96SW2 whole entry): as the sequence (Q96SW2 whole entry) above

O=C1CCC(N2Cc3cc(CN4CCC(c5c[nH]c6ncccc56)CC4)ccc3C2=O)C(=O)N1 (stereo not shown) [GT-04603, 3-(5-((4-(1H-pyrrolo[2,3-b]pyridin-3-yl)piperidin-1-yl)methyl)-1-oxoisoindolin-2-yl)piperidine-2,6-dione]
GSPT1 substrate protein remaining % [1, 11]: A (0% ≤ substrate protein remaining % ≤ 80%) | IKZF3 substrate protein remaining % [2, 11]: A (0% ≤ substrate protein remaining % ≤ 80%) | IC50 [3]: 100 to 500 nM | Weel substrate protein remaining % [4, 11]: A (0% ≤ substrate protein remaining % ≤ 80%) | IC50 [5]: 500 to 1000 nM | IKZF 1 substrate protein remaining % [6, 11]: A (0% ≤ substrate protein remaining % ≤ 80%) | IC50 [7]: 100 to 500 nM | IC50 [8]: 10 to 50 nM | IKZF2 substrate protein remaining % [9, 11]: A (0% ≤ substrate protein remaining % ≤ 80%) | CK1a substrate protein remaining % [10, 11]: A (0% ≤ substrate protein remaining % ≤ 80%)

O=C1CCC(N2Cc3cc(CN4CCC(N5CCCc6cc(F)ccc65)CC4)ccc3C2=O)C(=O)N1 (stereo not shown) [GT-04691, 3-(5-((4-(6-fluoro-3,4-dihydroquinolin-1(2H)-yl)piperidin-1-yl)methyl)-1-oxoisoindolin-2-yl)piperidine-2,6-dione]
GSPT1 substrate protein remaining % [1, 11]: A (0% ≤ substrate protein remaining % ≤ 80%) | IKZF3 substrate protein remaining % [2, 11]: A (0% ≤ substrate protein remaining % ≤ 80%) | IC50 [3]: 500 to 1000 nM | Weel substrate protein remaining % [4, 11]: A (0% ≤ substrate protein remaining % ≤ 80%) | IC50 [5]: 500 to 1000 nM | IKZF 1 substrate protein remaining % [6, 11]: A (0% ≤ substrate protein remaining % ≤ 80%) | IC50 [7]: 500 to 1000 nM | IC50 [8]: 10 to 50 nM | IKZF2 substrate protein remaining % [9, 11]: A (0% ≤ substrate protein remaining % ≤ 80%) | CK1a substrate protein remaining % [10, 11]: A (0% ≤ substrate protein remaining % ≤ 80%)

Cc1csc2ncnc(C3=CCN(Cc4ccc5c(c4)CN(C4CCC(=O)NC4=O)C5=O)CC3)c12 (stereo not shown) [GT-04703, 3-(5-((4-(5-methylthieno[2,3-d]pyrimidin-4-yl)-3,6-dihydropyridin-1(2H)-yl)methyl)-1-oxoisoindolin-2-yl)piperidine-2,6-dione]
GSPT1 substrate protein remaining % [1, 11]: A (0% ≤ substrate protein remaining % ≤ 80%) | IKZF3 substrate protein remaining % [2, 11]: A (0% ≤ substrate protein remaining % ≤ 80%) | Weel substrate protein remaining % [4, 11]: B (80%< substrate protein remaining %≤ 100%) | IC50 [5]: 500 to 1000 nM | IKZF 1 substrate protein remaining % [6, 11]: A (0% ≤ substrate protein remaining % ≤ 80%) | IC50 [8]: 100 to 500 nM | IKZF2 substrate protein remaining % [9, 11]: A (0% ≤ substrate protein remaining % ≤ 80%) | CK1a substrate protein remaining % [10, 11]: A (0% ≤ substrate protein remaining % ≤ 80%)

O=C1CCC(N2Cc3cc(CN4CCN(c5nc(N6CCOCC6)nc6c5SCC6)CC4)ccc3C2=O)C(=O)N1 (stereo not shown) [GT-04710, 3-(5-((4-(2-morpholino-6,7-dihydrothieno[3,2-d]pyrimidin-4-yl)piperazin-1-yl)methyl)-1-oxoisoindolin-2-yl)piperidine-2,6-dione]
GSPT1 substrate protein remaining % [1, 11]: A (0% ≤ substrate protein remaining % ≤ 80%) | IKZF3 substrate protein remaining % [2, 11]: A (0% ≤ substrate protein remaining % ≤ 80%) | Weel substrate protein remaining % [4, 11]: B (80%< substrate protein remaining %≤ 100%) | IC50 [5]: < 500 nM | IKZF 1 substrate protein remaining % [6, 11]: B (80%< substrate protein remaining %≤ 100%) | IC50 [8]: 500 to 1000 nM | IKZF2 substrate protein remaining % [9, 11]: B (80%< substrate protein remaining %≤ 100%) | CK1a substrate protein remaining % [10, 11]: A (0% ≤ substrate protein remaining % ≤ 80%)

O=C1CCC(N2Cc3cc(CN4CC(n5cnc6cc(F)ccc65)C4)ccc3C2=O)C(=O)N1 (stereo not shown) [GT-04716, 3-(5-((3-(5-fluoro-1H-benzo[d]imidazol-1-yl)azetidin-1-yl)methyl)-1-oxoisoindolin-2-yl)piperidine-2,6-dione]
GSPT1 substrate protein remaining % [1, 11]: A (0% ≤ substrate protein remaining % ≤ 80%) | IKZF3 substrate protein remaining % [2, 11]: B (80%< substrate protein remaining %≤ 100%) | Weel substrate protein remaining % [4, 11]: B (80%< substrate protein remaining %≤ 100%) | IC50 [5]: 500 to 1000 nM | IKZF 1 substrate protein remaining % [6, 11]: B (80%< substrate protein remaining %≤ 100%) | IC50 [8]: 100 to 500 nM | IKZF2 substrate protein remaining % [9, 11]: B (80%< substrate protein remaining %≤ 100%) | CK1a substrate protein remaining % [10, 11]: B (80%< substrate protein remaining %≤ 100%)

Cc1nc(C2CCN(Cc3ccc4c(c3)CN(C3CCC(=O)NC3=O)C4=O)CC2)c2ccsc2n1 (stereo not shown) [GT-04726, 3-(5-((4-(2-methylthieno[2,3-d]pyrimidin-4-yl)piperidin-1-yl)methyl)-1-oxoisoindolin-2-yl)piperidine-2,6-dione]
GSPT1 substrate protein remaining % [1, 11]: A (0% ≤ substrate protein remaining % ≤ 80%) | IKZF3 substrate protein remaining % [2, 11]: A (0% ≤ substrate protein remaining % ≤ 80%) | Weel substrate protein remaining % [4, 11]: A (0% ≤ substrate protein remaining % ≤ 80%) | IC50 [5]: 500 to 1000 nM | IKZF 1 substrate protein remaining % [6, 11]: A (0% ≤ substrate protein remaining % ≤ 80%) | IC50 [8]: 10 to 50 nM | IKZF2 substrate protein remaining % [9, 11]: A (0% ≤ substrate protein remaining % ≤ 80%) | CK1a substrate protein remaining % [10, 11]: A (0% ≤ substrate protein remaining % ≤ 80%)

Cc1ccsc1C1=CCN(Cc2ccc3c(c2)C(=O)N(C2CCC(=O)NC2=O)C3=O)CC1 (stereo not shown) [GT-04732, 2-(2,6-dioxopiperidin-3-yl)-5-((4-(3-methylthiophen-2-yl)-3,6-dihydropyridin-1(2H)-yl)methyl)isoindoline-1,3-dione]
GSPT1 substrate protein remaining % [1, 11]: A (0% ≤ substrate protein remaining % ≤ 80%) | IKZF3 substrate protein remaining % [2, 11]: B (80%< substrate protein remaining %≤ 100%) | IC50 [3]: 500 to 1000 nM | Weel substrate protein remaining % [4, 11]: A (0% ≤ substrate protein remaining % ≤ 80%) | IC50 [5]: 500 to 1000 nM | IKZF 1 substrate protein remaining % [6, 11]: B (80%< substrate protein remaining %≤ 100%) | IC50 [8]: 50 to 100 nM | IKZF2 substrate protein remaining % [9, 11]: B (80%< substrate protein remaining %≤ 100%) | CK1a substrate protein remaining % [10, 11]: A (0% ≤ substrate protein remaining % ≤ 80%)

O=C1CCC(N2C(=O)c3ccc(CN4CCN(c5ncccc5Cl)CC4)cc3C2=O)C(=O)N1 (stereo not shown) [GT-07843, 5-((4-(3-chloropyridin-2-yl)piperazin-1-yl)methyl)-2-(2,6-dioxopiperidin-3-yl)isoindoline-1,3-dione]
inhibition at 0.01 µM [3]: 30 to 40% | inhibition at 0.5 µM [3]: 30 to 40%

O=C1CCC(N2C(=O)c3ccc(CN4CCN(c5nc(N6CCCC6)nc6c5SCC6)CC4)cc3C2=O)C(=O)N1 (stereo not shown) [GT-08004, 2-(2,6-dioxopiperidin-3-yl)-5-((4-(2-(pyrrolidin-1-yl)-6,7-dihydrothieno[3,2-d]pyrimidin-4-yl)piperazin-1-yl)methyl)isoindoline-1,3-dione]
GSPT1 substrate protein remaining % [1, 12]: A (0% ≤ substrate protein remaining % ≤ 80%) | IKZF3 substrate protein remaining % [2, 12]: A (0% ≤ substrate protein remaining % ≤ 80%) | inhibition at 0.01 µM [3]: 30 to 40% | inhibition at 0.5 µM [3]: 40 to 50% | Weel substrate protein remaining % [4, 12]: B (80%< substrate protein remaining %≤ 100%) | IKZF 1 substrate protein remaining % [6, 12]: A (0% ≤ substrate protein remaining % ≤ 80%) | IKZF2 substrate protein remaining % [9, 12]: A (0% ≤ substrate protein remaining % ≤ 80%) | CK1a substrate protein remaining % [10, 12]: B (80%< substrate protein remaining %≤ 100%)

O=C1CCC(N2C(=O)c3ccc(CN4CCN(c5nc(N6CCC6)nc6c5SCC6)CC4)cc3C2=O)C(=O)N1 (stereo not shown) [GT-08005, 5-((4-(2-(azetidin-1-yl)-6,7-dihydrothieno[3,2-d]pyrimidin-4-yl)piperazin-1-yl)methyl)-2-(2,6-dioxopiperidin-3-yl)isoindoline-1,3-dione]
GSPT1 substrate protein remaining % [1, 12]: B (80%< substrate protein remaining %≤ 100%) | IKZF3 substrate protein remaining % [2, 12]: A (0% ≤ substrate protein remaining % ≤ 80%) | inhibition at 0.01 µM [3]: 20 to 30% | inhibition at 0.5 µM [3]: 30 to 40% | Weel substrate protein remaining % [4, 12]: B (80%< substrate protein remaining %≤ 100%) | IKZF 1 substrate protein remaining % [6, 12]: A (0% ≤ substrate protein remaining % ≤ 80%) | IKZF2 substrate protein remaining % [9, 12]: A (0% ≤ substrate protein remaining % ≤ 80%) | CK1a substrate protein remaining % [10, 12]: B (80%< substrate protein remaining %≤ 100%)
